Test results from PubChem BioAssay (NCI).
Values joined by “and” are separate entries in the source; they are usually repeats but may differ in a detail not shown here. Identical values can stand only once.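 Where inhibition never reached the appropriate level, the endpoint shown equals the highest concentration tested. Otherwise, values were interpolated linearly from a five-concentration, 48-hour dose response in 96-well plates. At the GI50, growth is halved. Definition used: TGI = concentration required for complete inhibition of growth.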

System: MDA-MB-468 breast
Experiment: NCI-60 cell line screen, 48 h

Row | SMILES | GI50 | TGI
1 | O=C(Nc1cccc(Cl)c1)c1cc(Cl)ccc1O | 1.75 µM | 7.23 µM
2 | CCn1c(-c2nonc2N)nc2c(C#CC(C)(C)O)ncc(OC[C@@H]3CCCN3)c21 | 0.232 µM | 7.19 µM
3 | Cc1ccc(S(=O)c2ccc([N+](=O)[O-])c3nonc23)cc1 (stereo not drawn) | 1.75 µM | 3.65 µM
4 | Cc1cc([C@H](C)Nc2nccc(N3C(=O)OC[C@@H]3[C@H](C)F)n2)ncc1-c1ccnc(C(F)(F)F)c1 | 9.5 µM | 79.6 µM
5 | Fc1ccc(-c2cc(-c3cn[nH]c3-c3ccccn3)ccn2)cc1 | > 25 µM | > 25 µM
6 | COc1ccccc1-c1nccc(COc2ccccc2C[C@@H](Oc2ncnc3sc(-c4ccc(F)cc4)c(-c4ccc(OCCN5CCN(C)CC5)c(Cl)c4C)c23)C(=O)O)n1 | < 0.01 µM | 0.0121 µM
7 | CCCCCCCCCCCCNC(=O)[C@H]1CSC(c2ccsc2)N1 (stereo partly drawn) | 0.846 µM | 1.63 µM
8 | COc1cc(/C=C2\C(=O)Nc3ccc(Br)cc32)cc(OC)c1OC | 3.29 µM | > 100 µM
9 | CC[C@H](C)[C@H](NC(=O)N[C@@H](C)c1ccccc1)C(=O)N(C)[C@H](C[C@@H](OC(C)=O)c1nc(C(=O)N[C@@H](Cc2ccccc2)C[C@H](C)C(=O)OC)cs1)C(C)C | 3.6 µM | 24.9 µM
10 | Oc1ccc(CSc2nnc(-c3ccc(Oc4ccccc4)cc3)n2-c2ccccc2)c2cccnc12 | 0.18 µM | 6.81 µM
11 | NC(=O)c1cc(-c2ccc3ncnc(N4CCc5cc(F)c(Cl)cc54)c3c2)cnc1N | 0.397 µM | 2.04 µM
12 | O=c1c2ccccc2c(=O)c2c1sc1c(=O)c3ccc(O)cc3c(=O)c12 | 1.52 µM | 4 µM
13 | COc1ccc(-c2conc2-c2ccccc2)cc1 | 0.225 µM | > 100 µM
14 | COc1ccc(-c2nn(-c3cccc(Cl)c3)cc2-c2cc(-c3cccs3)no2)cc1 | 2.68 µM | 12.3 µM
15 | N#Cc1c(-c2ccc(Cl)cc2)csc1NC(=O)Nc1cccc(C(F)(F)F)c1 | 2.18 µM | 8.27 µM
16 | N#CC1=C(N)Oc2c(sc3c(Br)cccc23)C1c1ccc(F)cc1 (stereo not drawn) | 0.333 µM | 6.41 µM
17 | NCCNc1nc2ccccc2c2c(=O)c3cc(F)cc(Cl)c3sc12 | 1.73 µM | 3.44 µM
18 | Cc1ccc(NCCNCC(O)CO)c2c(=O)c3ccccc3sc12 (stereo not drawn) | 1.39 µM | 2.86 µM
19 | NC1(C(=O)O)CSSC1 | 2.1 µM | 7.89 µM
20 | COc1ccc2nc3cc(Cl)ccc3c(Nc3ccc(O)c(CN4CCCC4)c3)c2c1 | 1.85 µM | 3.65 µM
21 | CCOC(=O)C(=Cc1c(-c2ccccc2)[nH]c2ccccc12)C(=O)OCC | 3.1 µM | 15.4 µM
22 | O=C1c2c(O)ccc(O)c2C(=O)c2c(NCCNCCO)ccc(NCCNCCO)c21 | 0.0835 µM | 0.346 µM

Row | SMILES | GI50 | TGI
23 | Cc1nc2cc(Nc3nc(Nc4ccc(F)cc4)nc(-c4ccc(Cl)cc4)n3)ccc2n1Cc1ccccc1 | 4.94 µM | 88 µM
24 | CCc1ccc(OCc2ccccc2C(=O)Nc2ccc3nc(C)cc(N)c3c2)cc1 | 1.26 µM | 2.8 µM
25 | COc1ccc(CNC(=O)c2ccc(-c3cc(-c4nnc(C)o4)ccc3C)cc2)cc1 | 5.14 µM | 21.4 µM
26 | COc1ccc(-c2nn(-c3cccc(Cl)c3)cc2/C=C2\C(=N)N(c3ccccc3)N=C2N)cc1 | 4.15 µM | 45.8 µM
27 | COc1cccc(C2CC(=O)Nc3cc4c(cc32)CCC4)c1OC (stereo not drawn) | 1.83 µM | 5.45 µM
28 | O=C(Nc1nc2ccc(F)cc2s1)c1cccnc1Nc1ccc(Cl)cc1Cl | 0.786 µM | 20.2 µM
29 | COc1ccc(-c2nn3ncccc3c2-c2ccnc(Nc3cccc(C(F)(F)F)c3)n2)cc1 | 4.62 µM | 14.1 µM
30 | COC12C=C/C(=C(/C(=O)OCc3csc(SC)n3)C(=O)CCCCCCCCC3(OC)C=C/C(=C(/C(=O)OCc4cnc(SC)s4)C(=O)CCCCCCCC1)O3)O2 (stereo not drawn) | 3.56 µM | 61.3 µM
31 | CC(=O)Nc1ccc2c(c1)CN1C(=O)c3ccccc3C1=N2 | > 100 µM | > 100 µM
32 | CC(=O)OC1Oc2cc(C)c(C)cc2-c2oc(=O)c(-c3ccccc3)cc21 (stereo not drawn) | 0.796 µM | 43.9 µM
33 | O=C1c2cc3c(cc2-c2c1c1cc(F)c(F)cc1c(=O)n2C[C@H](O)CO)OCO3 | 0.0379 µM | 0.206 µM
34 | Cc1cc2c(-c3nc4ccccn4c3NC34CC5CC(CC(C5)C3)C4)c(O)c(O)cc2c(O)c1-c1c(C)cc2c(-c3nc4ccccn4c3NC34CC5CC(CC(C5)C3)C4)c(O)c(O)cc2c1O | 0.143 µM | 1.57 µM
35 | Oc1cccc(-c2nc(N3CCOCC3)c3oc4ncccc4c3n2)c1 | 0.576 µM and 0.375 µM | 2.37 µM and 2.15 µM
36 | CCCCCCCCCCCCCCCCCCNC(=O)[C@H]1CSC(c2ccc(F)c(OC)c2)N1 (stereo partly drawn) | 1.84 µM | > 50 µM
37 | CN(C)CCCNc1c2ccccc2nc2c1oc1ccc(Cl)cc12 | 2.76 µM | 11 µM
38 | Cc1cc(C(=O)Nc2cc(Nc3ncccc3-c3ncnc4nc[nH]c34)ccc2F)cc(C(C)(C)C#N)c1 | 10.3 µM | > 100 µM
39 | Cc1cc(Nc2cc(N3CCN(C)CC3)nc(C#Cc3ccccc3)n2)n[nH]1 | 1.67 µM | 6.53 µM
40 | Cc1ccc2c(C(C[N+](=O)[O-])c3ccco3)c(-c3ccccc3)[nH]c2c1 (stereo not drawn) | 7.26 µM | 71.2 µM
41 | CN1CCN(CCCOc2ccc3ncnc(Nc4ccc(Oc5cccc(F)c5)c(Cl)c4)c3c2)CC1 | 1.06 µM | 2.53 µM
42 | NC(=O)c1c(NC(=O)c2cccc(C(F)(F)F)c2)sc2c1CCC(=O)C2 | 0.348 µM | 2.9 µM
43 | C#CCn1cc(C=C2C(=O)NC(=S)NC2=O)c2cc(Cl)ccc21 | 2.06 µM | 5.08 µM
44 | CC(=O)c1c(Nc2ccc(F)c(F)c2F)[nH]c2c(F)cc(F)cc2c1=O | 0.261 µM | 0.789 µM
